“And” between values parts separate entries of the source, which are not always exact repeats. Identical values can stand only once. Counter-ions that a name gives are not always drawn.
Experiments:
[1] = test system: rabbit pupil; experiment: Rabbit pupil constriction after single eye drop (Test Example 1); type: in vivo, New Zealand rabbit; conditions: rabbits, Test Example 1 solutions
Description: Except for group 5), the eye drop solutions of groups 1) to 12) described above contained an equimolar concentration of pilocarpine. The molar concentration of pilocarpine in the eye drop solution of group 5) was half of the molar concentration of pilocarpine in the solutions of the other 11 groups.
The effects of the eye drop solutions of groups 1) to 12) prepared above on rabbit pupil constriction and irritation were tested separately.
• Species and strain: New Zealand rabbit • Grade: normal • Source: Qinglongshan Animal Breeding Farm, Jiangning District, Nanjing • Production license No.: SCXK (Su) 2016-0008 • Animal age: about 110 days old at the time of administration • Animal body weight: about 2.5-3.5 kg at the time of administration • Animal sex: all male • Feed: rabbit pellet feed • Housing conditions: air-conditioned room, with a temperature of 18-26° C. and a relative humidity of 40%-80%.
• Digital vernier caliper: specification: 0-150 mm; measurement accuracy: 0.01 mm; manufacturer: Guilin Guanglu Measuring Instrument Co., Ltd.
(§1) Each rabbit was subjected to eye drop administration in the left eye (using a pipette), with an administration volume of 100 μL.
• Number of animals: for JQ series compounds, 6 rabbits per compound; for compounds 1, 2 and 4, 5 rabbits per compound. • Administration schedule: single administration. Measurement indicators and time points: • for JQ series compounds, the pupil diameter of the left eye of the rabbits was measured at time points of −0.5 h (i.e., half an hour before administration), 5 min, 10 min, 15 min, 0.5 h, 3 h and 4 h relative to administration, with the measurement repeated 3 times for each rabbit at each time point (measurement time points were extended if necessary); • for compounds 1, 2 and 4, the pupil diameter of the left eye of the rabbits was measured at time points of 3 h and 4 h relative to administration, with the measurement repeated 3 times for each rabbit at each time point (measurement time points were extended if necessary).
Percentage change in pupil diameter (%) after administration=(pupil diameter after administration−pupil diameter before administration)/pupil diameter before administration×100%
The measurement result for each rabbit at each time point was represented by the average value of three measurements.

[2] = test system: rabbit pupil; experiment: Rabbit pupil diameter change with other pilocarpine salts (Test Example 2); type: in vivo; conditions: for miosis effect on rabbit pupils 3 h after administration: Table 2-1 solutions, equimolar pilocarpine; for Percentage change in pupil diameter: average value ± SD
From the text: Pilocarpine nitrate: with a molecular weight of 271.27 and a purity of 98%, from Nanjing Jiqun Pharmaceutical Technology Co., Ltd., prepared into a 1.38% solution using normal saline. Pilocarpine salicylate: with a molecular weight of 346.24 and a purity of 99.73%, from Nanjing Jiqun Pharmaceutical Technology Co., Ltd., prepared into a 1.76% solution using normal saline. Pilocarpine malate: with a molecular weight of 342.21 and a purity of 99.72%, from Nanjing Jiqun Pharmaceutical Technology Co., Ltd., prepared into a 1.74% solution using normal saline. Pilocarpine maleate: with a molecular weight of 324.19 and a purity of 99.76%, from Nanjing Jiqun Pharmaceutical Technology Co., Ltd., prepared into a 1.65% solution using normal saline. Pilocarpine fumarate: with a molecular weight of 324.19 and a purity of 99.74%, from Nanjing Jiqun Pharmaceutical Technology Co., Ltd., prepared into a 1.65% solution using normal saline. Pilocarpine lipoate: with a molecular weight of 414.58 and a purity of 99.56%, from Nanjing Jiqun Pharmaceutical Technology Co., Ltd., prepared into a 2.11% solution using normal saline. Note: The concentrations of the compounds were different, but they all contained an equimolar amount of pilocarpine. Each rabbit in each group was subjected to single eye drop administration in the left eye, with an administration volume of 100 μL. […] The entire measurement process was completed by the same person.

[3] = test system: rabbit pupil; experiment: Rabbit pupil diameter change, pilocarpine p-toluate at different concentrations (Test Example 3); type: in vivo; conditions: 1.25%
Description: Under the condition of normal saline, the onset time, strength of effect, duration of effect, and irritation of 1.25% pilocarpine hydrochloride and different concentrations (0.88%, 1.75%, 3.50%) of pilocarpine p-toluate were tested.
as §1
Number of animals: 6 rabbits per compound.
Administration schedule: single administration.
• the pupil diameter of the left eye of the rabbits was measured at time points of −0.5 h (i.e., half an hour before administration), 5 min, 10 min, 15 min, 0.5 h, 3 h and 4 h relative to administration, with the measurement performed 3 times for each rabbit at each time point.

[4] = Stability tests on compound starting materials (HPLC related substances); type: physicochemical; conditions: starting material
Description: Samples: compound 1, compound 2 and pilocarpine hydrochloride starting material solid particles.
High-temperature test: 1 g of each of compound 1, compound 2 and pilocarpine hydrochloride starting materials were taken and placed in an open container inside a constant temperature device at 40° C.; samples were taken at time points of day 0 and day 5, and then tested according to the key stability examination items. The stability of the active pharmaceutical ingredient itself and the trend of changes in stability under the conditions of influencing factor tests were observed.
Strong light irradiation test: 1 g of each of compound 1, compound 2 and pilocarpine hydrochloride starting materials were taken and placed in an open container inside a light irradiation box, with the illumination set at 4500 lx±500 lx; samples were taken at time points of day 0 and day 5, and then tested according to the key stability examination items.
High-humidity test: 1 g of each of compound 1, compound 2 and pilocarpine hydrochloride starting materials was taken and placed in an open container inside a constant humidity closed container at 25° C. and with a relative humidity of 75%±5%; samples were taken at day 0 and day 5, and then tested according to the requirements of the key stability examination items.
According to the records in the European Pharmacopoeia (EP), the key related substances to be examined for pilocarpine include: impurity A isopilocarpine (Z-A), impurity B pilocarpic acid (Z-B), and impurity C isopilocarpic acid (Z-C). The samples taken at different time points from the above high-temperature test, strong light irradiation test and high-humidity test were separately tested using high-performance liquid chromatography to observe the trend of changes in stability under the conditions of the influencing factor tests.
The related substances were determined according to the high-performance liquid chromatography (General Chapter 0512, Chinese Pharmacopoeia, Volume IV, 2020 Edition).
Test sample solution: an appropriate amount of each test sample was precisely weighed, dissolved in water, and diluted to prepare a solution containing 1 mg of test sample per 1 mL.
Chromatographic conditions: octadecyl bonded silica gel was used as a filler [kromasil 100-5-C18 column (4.0 mm×[…]) or a chromatographic column with equivalent performance], 0.679 g/L tetrabutylammonium dihydrogen phosphate-methanol-acetonitrile (885:55:60) (adjusted to pH 7.7 with dilute aqueous ammonia) was used as mobile phase A, and acetonitrile-water (80:20) was used as mobile phase B; gradient elution was performed according to Table 6-1, with a column temperature of 30° C., a flow rate of 1.0 mL/min, a detection wavelength of 220 nm, and a sample injection volume of 20 μL.

[5] = test system: rabbit eyes; experiment: Eye irritation in rabbits (Test Example 2); type: in vivo; conditions: 2.11% solution
[6] = Light-5 days (4500 lx), hydrochloride
[7] = RH 75%-5 days, 25° C., hydrochloride
[8] = drug concentration 1.65%, 0.5 h

## CC[C@@H]1C(=O)OC[C@@H]1Cc1cncn1C [pilocarpine hydrochloride, reference compound]
[1]
  maximum percentage change in pupil diameter: around 35%
[1]; hydrochloride
  pupil constriction (miosis) effect at 3 h after administration: substantially no pupil constriction effect
[2]
  miosis effect on rabbit pupils 3 h after administration: substantially no miosis effect
[3]; 5 min, average of 6 rabbits
  Percentage change in pupil diameter: −7.81%
[3]; 5 min, individual rabbit, hydrochloride
  Percentage change in pupil diameter: −6.28% and −7.23% and −8.93% and −6.51% and −15.75% and −2.17%
[3]; 10 min, average of 6 rabbits
  Percentage change in pupil diameter: −29.35%
[3]; 10 min, individual rabbit, hydrochloride
  Percentage change in pupil diameter: −29.40% and −32.93% and −28.98% and −26.64% and −36.43% and −21.69%
[3]; 15 min, average of 6 rabbits
  Percentage change in pupil diameter: −35.33%
[3]; 15 min, individual rabbit, hydrochloride
  Percentage change in pupil diameter: −40.68% and −36.99% and −33.54% and −33.71% and −42.10% and −24.95%
[3]; 0.5 h, average of 6 rabbits
  Percentage change in pupil diameter: −34.59%
[3]; 0.5 h, individual rabbit, hydrochloride
  Percentage change in pupil diameter: −36.45% and −36.62% and −38.14% and −32.89% and −39.82% and −23.64%
[3]; 3 h, average of 6 rabbits
  Percentage change in pupil diameter: −3.13%
[3]; 3 h, individual rabbit, hydrochloride
  Percentage change in pupil diameter: 4.54% and −0.58% and 0.03% and −6.71% and −16.22% and 0.16%
[3]; 4 h, average of 6 rabbits
  Percentage change in pupil diameter: 0.25%
[3]; 4 h, individual rabbit, hydrochloride
  Percentage change in pupil diameter: −0.15% and −1.79% and 2.79% and 2.49% and −2.39% and 0.54%
[4]; 40° C.-5 days
  (Z-C) impurity C isopilocarpic acid: 0%
  Maximum single impurity: 0%
[4]; 40° C.-5 days, hydrochloride
  (Z-A) impurity A isopilocarpine: 0.248%
  (Z-B) impurity B pilocarpic acid: 0%
  Total impurity: 0.248%
[4]; Day 0
  (Z-B) impurity B pilocarpic acid: 0%
  (Z-C) impurity C isopilocarpic acid: 0%
  Maximum single impurity: 0%
[4]; Day 0, hydrochloride
  (Z-A) impurity A isopilocarpine: 0.197%
  Total impurity: 0.197%
[4]; Light-5 days (4500 lx)
  (Z-C) impurity C isopilocarpic acid: 0%
  Maximum single impurity: 0%
[4]; [6]
  (Z-A) impurity A isopilocarpine: 0.248%
  (Z-B) impurity B pilocarpic acid: 0%
  Total impurity: 0.248%
[4]; RH 75%-5 days, 25° C.
  (Z-C) impurity C isopilocarpic acid: 0%
[4]; [7]
  (Z-A) impurity A isopilocarpine: 0.259%
  (Z-B) impurity B pilocarpic acid: 1.641%
  Maximum single impurity: 0.123%
  Total impurity: 2.023%

## Pilocarpine fumarate
[2]
  miosis effect on rabbit pupils 3 h after administration: substantially no miosis effect
[2]; [8]
  Percentage change in pupil diameter: −22.09 ± 6.44%
[2]; drug concentration 1.65%, 3 h
  Percentage change in pupil diameter: −1.00 ± 1.51%

## CC[C@@H]1C(=O)OC[C@@H]1Cc1cncn1C [Pilocarpine nitrate]
[2]
  miosis effect on rabbit pupils 3 h after administration: substantially no miosis effect

## Pilocarpine maleate
[2]
  miosis effect on rabbit pupils 3 h after administration: substantially no miosis effect
[2]; [8]
  Percentage change in pupil diameter: −27.53 ± 4.42%
[2]; drug concentration 1.65%, 3 h
  Percentage change in pupil diameter: −1.52 ± 6.38%

## CC[C@@H]1C(=O)OC[C@@H]1Cc1cncn1C.O=C(O)CCCCC1CCSS1 [Pilocarpine lipoate]
[2]; drug concentration 2.11%, 0.5 h
  Percentage change in pupil diameter: −40.69 ± 2.68%
[2]; drug concentration 2.11%, 3 h
  Percentage change in pupil diameter: −3.11 ± 2.38%
[5]
  eye irritation on administration: caused significant irritation and noticeable hyperemia

## CC[C@@H]1C(=O)OC[C@@H]1Cc1cncn1C [Compound 4]
[1]
  pupil constriction (miosis) effect at 3 h after administration: still showed miosis effect

## Pilocarpine malate
[2]
  miosis effect on rabbit pupils 3 h after administration: substantially no miosis effect
[2]; drug concentration 1.74%, 0.5 h
  Percentage change in pupil diameter: −27.71 ± 4.98%
[2]; drug concentration 1.74%, 3 h
  Percentage change in pupil diameter: 0.07 ± 2.49%

## CCC1C(=O)OCC1Cc1cncn1C.O=C(O)c1ccccc1O (stereo not shown) [Pilocarpine salicylate]
[2]
  miosis effect on rabbit pupils 3 h after administration: substantially no miosis effect
[2]; drug concentration 1.76%, 0.5 h
  Percentage change in pupil diameter: −30.12 ± 4.47%
[2]; drug concentration 1.76%, 3 h
  Percentage change in pupil diameter: 2.91 ± 1.07%
